Assays:
[1] = used alone or in combination with UV-B filters; cited from earlier work
[2] = UV absorption of the compounds (absorption maximum and specific absorbance); format: physicochemical; conditions: for λmax: UV absorption maximum; for E^11: specific absorbance at λmax

Structure (SMILES)	λmax [2] [nm]	E^11 [2]	melting point [°C]	photochemical stability [1]
COc1ccc(C(=O)CC(=O)c2ccc(C(C)(C)C)cc2)cc1 [PARSOL 1789, 4-(1,1-dimethylethyl)-4′-methoxydibenzoylmethane]	–	–	–	does not have sufficient photochemical stability
CCN(CC)c1ccc(C(=O)c2ccccc2C(=O)OC)c(O)c1 [Example 1, Methyl 2-(4-diethylamino-2-hydroxybenzoyl)benzoate]	354	1173	–	–

More lines, main results first:

λmax [2] [nm]	E^11 [2]	melting point [°C]	Structure (SMILES)	photochemical stability [1]
359	1280	46 to 48	CCN(CC)c1ccc(C(=O)c2ccccc2)c(O)c1 [Example 2, 4-diethylamino-2-hydroxyphenyl phenyl ketone]	–
355	1179	164	COC(=O)c1ccccc1C(=O)c1ccc(N2CCCC2)cc1O [Example 4]	–
355	1167	203	O=C(O)c1ccccc1C(=O)c1ccc(N2CCCC2)cc1O [Example 3]	–
